Source: patent US20020137929A1, “1 - (3-heterocyclylphenyl) isothiourea, -isourea, -guanidine and -amidine herbicidal agents” (Intellectual Property Department, BASF Aktiengesellschaft, priority 1998, published 2002)

Key:
[1] = system: GLXMAW (Soybean, Williams); test: Postemergence herbicidal evaluation; assay type: in vivo, Glycine max, (L.) Merr. cv Williams; conditions: for Herbicidal rating GLXMAW: postemergence
Procedure, shortened: (§1)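 Visual 0-9 injury score (stand, vigor, malformation, size, chlorosis, appearance vs untreated) taken four to five weeks post-spray, averaged across repeat tests. Test plants about two weeks old; foliar spray of acetone/water (1:1) with 0.5% surfactant delivering ~0.0156-0.500 kg active/ha.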

[2] = system: IPOHE (Morningglory, Ivyleaf); test: Postemergence herbicidal evaluation; assay type: in vivo, Ipomoea hederacea; conditions: for Herbicidal rating IPOHE: postemergence
Procedure, shortened: as §1

[3] = system: SAGPY (Arrowhead (Pygmaea)); test: Preemergence weed control under flooded paddy conditions; assay type: in vivo, Sagittaria pygmaea; conditions: rated 3-4 weeks after treatment
Procedure, shortened: (§2)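 Visual injury scored 0-9 against control three to four weeks post-treatment, greenhouse-grown. Application: acetone/water (50/50) solutions dosed directly into flood water (1.5-3 cm over silt loam, planted top 0.5 cm), roughly 0.0313 to 0.500 kg/ha active ingredient.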

[4] = system: CHEAL (Lambsquarters, Common); test: Postemergence herbicidal evaluation; assay type: in vivo, Chenopodium album; conditions: for Herbicidal rating CHEAL: postemergence
Procedure, shortened: as §1

[5] = system: TRZAWR (Wheat, Winter, cv Riband); test: Postemergence herbicidal evaluation; assay type: in vivo, Triticum aestivum; conditions: for Herbicidal rating TRZAWR: postemergence
Procedure, shortened: as §1

ECHCG (Barnyardgrass) = test: Postemergence herbicidal evaluation; assay type: in vivo, Echinochloa crus-galli; conditions: for Herbicidal rating ECHCG: postemergence
Procedure, shortened: as §1

AMBEL (Ragweed, Common) = test: Postemergence herbicidal evaluation; assay type: in vivo, Ambrosia artemisifolia; conditions: for Herbicidal rating AMBEL: postemergence
Procedure, shortened: as §1

MOOVA (Monochoria) = test: Preemergence weed control under flooded paddy conditions; assay type: in vivo, Monochoria vaginalis; conditions: rated 3-4 weeks after treatment
Procedure, shortened: as §2

CASOB (Sicklepod) = test: Postemergence herbicidal evaluation; assay type: in vivo, Cassia obtusifolia; conditions: for Herbicidal rating CASOB: postemergence
Procedure, shortened: as §1

CCOC(=O)CN1C(=O)C(CC(=O)OC(C)C)SC1=Nc1cc(-n2c(=O)cc(C(F)(F)F)n(C)c2=O)c(F)cc1Cl (stereo not drawn) [Compound 55, 2-{{2-Chloro-5-[3,6-dihydro-3-methyl-2,6-dioxo-4-(trifluoromethyl)-1(2H)-pyrimidinyl]-4-fluoro-phenyl}imino}-4-oxo-3,5-thiazolidinediacetic acid, 3-ethyl isopropyl ester]
Postemergence herbicidal rating GLXMAW ([1]; Rate 0.0158 kg/ha): 8.0
Postemergence herbicidal rating GLXMAW ([1]; Rate 0.0313 kg/ha): 8.2
Postemergence herbicidal rating GLXMAW ([1]; Rate 0.0625 kg/ha): 8.0
Postemergence herbicidal rating GLXMAW ([1]; Rate 0.1250 kg/ha): 8.3
Postemergence herbicidal rating GLXMAW ([1]; Rate 0.2500 kg/ha): 8.0
Postemergence herbicidal rating IPOHE ([2]; Rate 0.0158 kg/ha): 9.0
Postemergence herbicidal rating IPOHE ([2]; Rate 0.0313 kg/ha): 9.0
Postemergence herbicidal rating IPOHE ([2]; Rate 0.0625 kg/ha): 9.0
Postemergence herbicidal rating IPOHE ([2]; Rate 0.1250 kg/ha): 9.0
Postemergence herbicidal rating IPOHE ([2]; Rate 0.2500 kg/ha): 9.0
Herbicidal rating SAGPY ([3]; 0.0313 kg/ha): 0.0
Herbicidal rating SAGPY ([3]; 0.0625 kg/ha): 0.0
Herbicidal rating SAGPY ([3]; 0.1250 kg/ha): 0.0
Herbicidal rating SAGPY ([3]; 0.2500 kg/ha): 0.0
Postemergence herbicidal rating CHEAL ([4]; Rate 0.0158 kg/ha): 9.0
Postemergence herbicidal rating CHEAL ([4]; Rate 0.0313 kg/ha): 9.0
Postemergence herbicidal rating CHEAL ([4]; Rate 0.0625 kg/ha): 9.0
Postemergence herbicidal rating CHEAL ([4]; Rate 0.1250 kg/ha): 9.0
Postemergence herbicidal rating CHEAL ([4]; Rate 0.2500 kg/ha): 9.0
Postemergence herbicidal rating TRZAWR ([5]; Rate 0.0158 kg/ha): 5.5
Postemergence herbicidal rating TRZAWR ([5]; Rate 0.0313 kg/ha): 6.8
Postemergence herbicidal rating TRZAWR ([5]; Rate 0.0625 kg/ha): 7.5
Postemergence herbicidal rating TRZAWR ([5]; Rate 0.1250 kg/ha): 7.5
Postemergence herbicidal rating TRZAWR ([5]; Rate 0.2500 kg/ha): 7.5
Postemergence herbicidal rating ECHCG (ECHCG (Barnyardgrass); Rate 0.0158 kg/ha): 9.0
Postemergence herbicidal rating ECHCG (ECHCG (Barnyardgrass); Rate 0.0313 kg/ha): 9.0
Postemergence herbicidal rating ECHCG (ECHCG (Barnyardgrass); Rate 0.0625 kg/ha): 9.0
Postemergence herbicidal rating ECHCG (ECHCG (Barnyardgrass); Rate 0.1250 kg/ha): 9.0
Postemergence herbicidal rating ECHCG (ECHCG (Barnyardgrass); Rate 0.2500 kg/ha): 9.0
Postemergence herbicidal rating AMBEL (AMBEL (Ragweed, Common); Rate 0.0158 kg/ha): 9.0
Postemergence herbicidal rating AMBEL (AMBEL (Ragweed, Common); Rate 0.0313 kg/ha): 9.0
Postemergence herbicidal rating AMBEL (AMBEL (Ragweed, Common); Rate 0.0625 kg/ha): 9.0
Postemergence herbicidal rating AMBEL (AMBEL (Ragweed, Common); Rate 0.1250 kg/ha): 9.0
Postemergence herbicidal rating AMBEL (AMBEL (Ragweed, Common); Rate 0.2500 kg/ha): 9.0
Herbicidal rating MOOVA (MOOVA (Monochoria); 0.0313 kg/ha): 9.0
Herbicidal rating MOOVA (MOOVA (Monochoria); 0.0625 kg/ha): 9.0
Herbicidal rating MOOVA (MOOVA (Monochoria); 0.1250 kg/ha): 9.0
Herbicidal rating MOOVA (MOOVA (Monochoria); 0.2500 kg/ha): 9.0
Postemergence herbicidal rating CASOB (CASOB (Sicklepod); Rate 0.0158 kg/ha): 1.0
Postemergence herbicidal rating CASOB (CASOB (Sicklepod); Rate 0.0313 kg/ha): 7.7
Postemergence herbicidal rating CASOB (CASOB (Sicklepod); Rate 0.0625 kg/ha): 9.0
Postemergence herbicidal rating CASOB (CASOB (Sicklepod); Rate 0.1250 kg/ha): 8.0
Postemergence herbicidal rating CASOB (CASOB (Sicklepod); Rate 0.2500 kg/ha): 9.0

C=CCN1C(=O)C(CC(=O)NS(=O)(=O)c2ccccc2)SC1=Nc1cc(-n2c(=O)cc(C(F)(F)F)n(C)c2=O)c(F)cc1Cl (stereo not drawn) [Compound 101, 3-Allyl-2-{{2-chloro-5-[3,6-dihydro-3-methyl-2,6-dioxo-4-(trifluoromethyl)-1(2H)-pyrimidinyl]-4-fluorophenyl}imino}-4-oxo-N-(phenylsulfonyl)-5-thiazolidineacetamide]
Herbicidal rating GLXMAW ([1]; rate 0.0156 kg/ha): 5.5
Herbicidal rating GLXMAW ([1]; rate 0.0313 kg/ha): 5.5
Herbicidal rating GLXMAW ([1]; rate 0.0625 kg/ha): 6.0
Herbicidal rating GLXMAW ([1]; rate 0.1250 kg/ha): 6.5
Herbicidal rating IPOHE ([2]; rate 0.0156 kg/ha): 4.0
Herbicidal rating IPOHE ([2]; rate 0.0313 kg/ha): 9.0
Herbicidal rating IPOHE ([2]; rate 0.0625 kg/ha): 9.0
Herbicidal rating IPOHE ([2]; rate 0.1250 kg/ha): 9.0
SAGPY herbicidal effect rating ([3]; 0.0313 kg/ha): 0.0
SAGPY herbicidal effect rating ([3]; 0.0625 kg/ha): 0.0
SAGPY herbicidal effect rating ([3]; 0.1250 kg/ha): 0.0
SAGPY herbicidal effect rating ([3]; 0.2500 kg/ha): 2.0
SAGPY herbicidal effect rating ([3]; 0.5000 kg/ha): 4.0
Herbicidal rating CHEAL ([4]; rate 0.0156 kg/ha): 4.0
Herbicidal rating CHEAL ([4]; rate 0.0313 kg/ha): 4.0
Herbicidal rating CHEAL ([4]; rate 0.0625 kg/ha): 4.0
Herbicidal rating CHEAL ([4]; rate 0.1250 kg/ha): 7.0
Herbicidal rating TRZAWR ([5]; rate 0.0156 kg/ha): 3.0
Herbicidal rating TRZAWR ([5]; rate 0.0313 kg/ha): 3.5
Herbicidal rating TRZAWR ([5]; rate 0.0625 kg/ha): 4.0
Herbicidal rating TRZAWR ([5]; rate 0.1250 kg/ha): 5.0
Herbicidal rating ECHCG (ECHCG (Barnyardgrass); rate 0.0156 kg/ha): 1.0
Herbicidal rating ECHCG (ECHCG (Barnyardgrass); rate 0.0313 kg/ha): 2.0
Herbicidal rating ECHCG (ECHCG (Barnyardgrass); rate 0.0625 kg/ha): 3.0
Herbicidal rating ECHCG (ECHCG (Barnyardgrass); rate 0.1250 kg/ha): 5.0
Herbicidal rating AMBEL (AMBEL (Ragweed, Common); rate 0.0156 kg/ha): 9.0
Herbicidal rating AMBEL (AMBEL (Ragweed, Common); rate 0.0313 kg/ha): 7.0
Herbicidal rating AMBEL (AMBEL (Ragweed, Common); rate 0.0625 kg/ha): 9.0
Herbicidal rating AMBEL (AMBEL (Ragweed, Common); rate 0.1250 kg/ha): 9.0
MOOVA herbicidal effect rating (MOOVA (Monochoria); 0.0313 kg/ha): 5.0
MOOVA herbicidal effect rating (MOOVA (Monochoria); 0.0625 kg/ha): 5.0
MOOVA herbicidal effect rating (MOOVA (Monochoria); 0.1250 kg/ha): 7.0
MOOVA herbicidal effect rating (MOOVA (Monochoria); 0.2500 kg/ha): 9.0
MOOVA herbicidal effect rating (MOOVA (Monochoria); 0.5000 kg/ha): 9.0
Herbicidal rating CASOB (CASOB (Sicklepod); rate 0.0156 kg/ha): 0.0
Herbicidal rating CASOB (CASOB (Sicklepod); rate 0.0313 kg/ha): 0.0
Herbicidal rating CASOB (CASOB (Sicklepod); rate 0.0625 kg/ha): 2.0
Herbicidal rating CASOB (CASOB (Sicklepod); rate 0.1250 kg/ha): 3.0
